System: 362531-283-R-J2-PDC complex spheroid viability
Assay: Anticancer human tumor 362531-283-R-J2-PDC patient-derived colon adenocarcinoma cell line growth inhibition [RAS]
Settings: for viability, T/C: stronger effect = lower value
Method in brief: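 Multi-cell-type spheroids: tumor cells plus HUVEC endothelial cells and mesenchymal stem cells. RAS-pathway inhibitors were combined with targeted agents, each dosed in half-log steps down from clinical Cmax, or from 10 microM when Cmax was unknown.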

[1] = curve of first compound, second compound 0.00316 µM
[2] = curve of first compound, second compound 0.01 µM
[3] = curve of first compound, second compound 0.0316 µM
[4] = curve of first compound, second compound 0.1 µM
[5] = curve of first compound, second compound 0.316 µM
[6] = curve of first compound, second compound 1 µM
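Note: spheroids exposed to the agents for 7 days before readout.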
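Throughout, for viability, T/C: luminescence viability as percent of DMSO vehicle control wells.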

Q: For `CC1(C)CCC(Nc2ncc(C(F)(F)F)c(-c3c[nH]c4c(P(C)(C)=O)c(C#N)ccc34)n2)CN1` (stereo not given) + C=CC(=O)N1CCN(c2nc(OCC3CCCN3C)nc3c(F)c(-c4nc(N)cc(C)c4C(F)(F)F)c(Cl)cc23)C(C)C1, which IC50 [1] is on record?
A: Its IC50 is over 0.3 µM.

Q: What about the IC50 [2] of the same compound?
A: The IC50 was over 0.3 µM.

Q: What about the IC50 [3] of the same compound?
A: Its IC50 is over 0.3 µM.

Q: What about the IC50 [4] of the same compound?
A: The IC50 was over 0.3 µM.

Q: What about the IC50 [5] of the same compound?
A: Its IC50 is over 0.3 µM.

Q: What about the IC50 [6] of the same compound?
A: The IC50 was over 0.3 µM.

Q: What about the viability, T/C (second compound 0.00316 µM, first compound 0.000949 µM) of the same compound?
A: The viability, T/C was 96.5%.

Q: What about the viability, T/C (second compound 0.00316 µM, first compound 0.003 µM) of the same compound?
A: Its viability, T/C is 104%.

Q: What about the viability, T/C (second compound 0.00316 µM, first compound 0.00949 µM) of the same compound?
A: Its viability, T/C is 103%.

Q: And the viability, T/C (second compound 0.00316 µM, first compound 0.03 µM)?
A: The viability, T/C was 100%.

Q: And the viability, T/C (second compound 0.00316 µM, first compound 0.0949 µM)?
A: The viability, T/C was 107%.

Q: And the viability, T/C (second compound 0.00316 µM, first compound 0.3 µM)?
A: Its viability, T/C is 99.1%.

Q: What about the viability, T/C (second compound 0.01 µM, first compound 0.000949 µM) of the same compound?
A: The viability, T/C was 103%.

Q: And the viability, T/C (second compound 0.01 µM, first compound 0.003 µM)?
A: Its viability, T/C is 112%.

Q: And the viability, T/C (second compound 0.01 µM, first compound 0.00949 µM)?
A: Its viability, T/C is 104%.

Q: And the viability, T/C (second compound 0.01 µM, first compound 0.03 µM)?
A: The viability, T/C was 98.8%.

Q: And the viability, T/C (second compound 0.01 µM, first compound 0.0949 µM)?
A: The viability, T/C was 109%.

Q: And the viability, T/C (second compound 0.01 µM, first compound 0.3 µM)?
A: The viability, T/C was 101%.

Q: What about the viability, T/C (second compound 0.0316 µM, first compound 0.000949 µM) of the same compound?
A: Its viability, T/C is 105%.

Q: What about the viability, T/C (second compound 0.0316 µM, first compound 0.003 µM) of the same compound?
A: Its viability, T/C is 105%.

Q: And the viability, T/C (second compound 0.0316 µM, first compound 0.00949 µM)?
A: Its viability, T/C is 103%.

Q: And the viability, T/C (second compound 0.0316 µM, first compound 0.03 µM)?
A: Its viability, T/C is 98.7%.

Q: What about the viability, T/C (second compound 0.0316 µM, first compound 0.0949 µM) of the same compound?
A: Its viability, T/C is 106%.

Q: And the viability, T/C (second compound 0.0316 µM, first compound 0.3 µM)?
A: Its viability, T/C is 96.5%.

Q: What about the viability, T/C (second compound 0.1 µM, first compound 0.000949 µM) of the same compound?
A: Its viability, T/C is 102%.

Q: And the viability, T/C (second compound 0.1 µM, first compound 0.003 µM)?
A: The viability, T/C was 105%.

Q: What about the viability, T/C (second compound 0.1 µM, first compound 0.00949 µM) of the same compound?
A: The viability, T/C was 104%.

Q: What about the viability, T/C (second compound 0.1 µM, first compound 0.03 µM) of the same compound?
A: Its viability, T/C is 103%.

Q: What about the viability, T/C (second compound 0.1 µM, first compound 0.0949 µM) of the same compound?
A: Its viability, T/C is 104%.

Q: What about the viability, T/C (second compound 0.1 µM, first compound 0.3 µM) of the same compound?
A: Its viability, T/C is 107%.

Q: And the viability, T/C (second compound 0.316 µM, first compound 0.000949 µM)?
A: The viability, T/C was 109%.

Q: And the viability, T/C (second compound 0.316 µM, first compound 0.003 µM)?
A: Its viability, T/C is 103%.

Q: What about the viability, T/C (second compound 0.316 µM, first compound 0.00949 µM) of the same compound?
A: Its viability, T/C is 111%.

Q: And the viability, T/C (second compound 0.316 µM, first compound 0.03 µM)?
A: Its viability, T/C is 98.6%.

Q: What about the viability, T/C (second compound 0.316 µM, first compound 0.0949 µM) of the same compound?
A: Its viability, T/C is 112%.

Q: What about the viability, T/C (second compound 0.316 µM, first compound 0.3 µM) of the same compound?
A: Its viability, T/C is 93.5%.

Q: And the viability, T/C (second compound 1 µM, first compound 0.000949 µM)?
A: Its viability, T/C is 99.2%.

Q: And the viability, T/C (second compound 1 µM, first compound 0.003 µM)?
A: The viability, T/C was 101%.

Q: What about the viability, T/C (second compound 1 µM, first compound 0.00949 µM) of the same compound?
A: The viability, T/C was 98.9%.

Q: And the viability, T/C (second compound 1 µM, first compound 0.03 µM)?
A: The viability, T/C was 108%.

Q: And the viability, T/C (second compound 1 µM, first compound 0.0949 µM)?
A: Its viability, T/C is 113%.

Q: What about the viability, T/C (second compound 1 µM, first compound 0.3 µM) of the same compound?
A: Its viability, T/C is 105%.

Q: How did the IC50 [1] turn out when `Cc1nc(N2CCC3(CC2)COC(C)C3N)c(CO)nc1Sc1ccnc(N)c1Cl` (stereo not given) + C=CC(=O)N1CCN(c2nc(OCC3CCCN3C)nc3c(F)c(-c4nc(N)cc(C)c4C(F)(F)F)c(Cl)cc23)C(C)C1 was run?
A: Its IC50 is over 10 µM.

Q: What about the IC50 [2] of the same compound?
A: The IC50 was over 10 µM.

Q: And the IC50 [3]?
A: The IC50 was over 10 µM.

Q: And the IC50 [4]?
A: Its IC50 is over 10 µM.

Q: What about the IC50 [5] of the same compound?
A: The IC50 was over 10 µM.

Q: And the IC50 [6]?
A: The IC50 was over 10 µM.

Q: And the viability, T/C (second compound 0.00316 µM, first compound 0.0316 µM)?
A: The viability, T/C was 111%.

Q: And the viability, T/C (second compound 0.00316 µM, first compound 0.1 µM)?
A: Its viability, T/C is 102%.

Q: What about the viability, T/C (second compound 0.00316 µM, first compound 0.316 µM) of the same compound?
A: Its viability, T/C is 103%.

Q: And the viability, T/C (second compound 0.00316 µM, first compound 1 µM)?
A: Its viability, T/C is 94.3%.

Q: And the viability, T/C (second compound 0.00316 µM, first compound 3.16 µM)?
A: The viability, T/C was 83.5%.

Q: And the viability, T/C (second compound 0.00316 µM, first compound 10 µM)?
A: The viability, T/C was 69.2%.

Q: What about the viability, T/C (second compound 0.01 µM, first compound 0.0316 µM) of the same compound?
A: Its viability, T/C is 110%.

Q: What about the viability, T/C (second compound 0.01 µM, first compound 0.1 µM) of the same compound?
A: The viability, T/C was 101%.

Q: And the viability, T/C (second compound 0.01 µM, first compound 0.316 µM)?
A: The viability, T/C was 97.5%.

Q: And the viability, T/C (second compound 0.01 µM, first compound 1 µM)?
A: Its viability, T/C is 86.3%.

Q: And the viability, T/C (second compound 0.01 µM, first compound 3.16 µM)?
A: The viability, T/C was 85.9%.

Q: And the viability, T/C (second compound 0.01 µM, first compound 10 µM)?
A: The viability, T/C was 77.5%.

Q: What about the viability, T/C (second compound 0.0316 µM, first compound 0.0316 µM) of the same compound?
A: The viability, T/C was 111%.

Q: And the viability, T/C (second compound 0.0316 µM, first compound 0.1 µM)?
A: Its viability, T/C is 111%.

Q: And the viability, T/C (second compound 0.0316 µM, first compound 0.316 µM)?
A: Its viability, T/C is 99.3%.

Q: What about the viability, T/C (second compound 0.0316 µM, first compound 1 µM) of the same compound?
A: Its viability, T/C is 96.8%.

Q: And the viability, T/C (second compound 0.0316 µM, first compound 3.16 µM)?
A: Its viability, T/C is 81.5%.

Q: What about the viability, T/C (second compound 0.0316 µM, first compound 10 µM) of the same compound?
A: Its viability, T/C is 73.8%.

Q: What about the viability, T/C (second compound 0.1 µM, first compound 0.0316 µM) of the same compound?
A: Its viability, T/C is 117%.

Q: What about the viability, T/C (second compound 0.1 µM, first compound 0.1 µM) of the same compound?
A: Its viability, T/C is 104%.

Q: And the viability, T/C (second compound 0.1 µM, first compound 0.316 µM)?
A: Its viability, T/C is 98.4%.

Q: What about the viability, T/C (second compound 0.1 µM, first compound 1 µM) of the same compound?
A: Its viability, T/C is 92.4%.

Q: And the viability, T/C (second compound 0.1 µM, first compound 3.16 µM)?
A: The viability, T/C was 82.4%.

Q: And the viability, T/C (second compound 0.1 µM, first compound 10 µM)?
A: The viability, T/C was 79.8%.

Q: What about the viability, T/C (second compound 0.316 µM, first compound 0.0316 µM) of the same compound?
A: The viability, T/C was 111%.

Q: What about the viability, T/C (second compound 0.316 µM, first compound 0.1 µM) of the same compound?
A: Its viability, T/C is 101%.

Q: And the viability, T/C (second compound 0.316 µM, first compound 0.316 µM)?
A: The viability, T/C was 118%.

Q: And the viability, T/C (second compound 0.316 µM, first compound 1 µM)?
A: The viability, T/C was 89.2%.

Q: What about the viability, T/C (second compound 0.316 µM, first compound 3.16 µM) of the same compound?
A: The viability, T/C was 88.5%.

Q: And the viability, T/C (second compound 0.316 µM, first compound 10 µM)?
A: The viability, T/C was 79.3%.

Q: And the viability, T/C (second compound 1 µM, first compound 0.0316 µM)?
A: The viability, T/C was 108%.

Q: And the viability, T/C (second compound 1 µM, first compound 0.1 µM)?
A: The viability, T/C was 111%.

Q: What about the viability, T/C (second compound 1 µM, first compound 0.316 µM) of the same compound?
A: The viability, T/C was 101%.

Q: What about the viability, T/C (second compound 1 µM, first compound 1 µM) of the same compound?
A: Its viability, T/C is 86.1%.

Q: And the viability, T/C (second compound 1 µM, first compound 3.16 µM)?
A: The viability, T/C was 83.1%.

Q: What about the viability, T/C (second compound 1 µM, first compound 10 µM) of the same compound?
A: Its viability, T/C is 68%.

Q: `CC(Nc1ccc2c(c1)OCCn1cc(N3C(=O)OCC3C(F)F)nc1-2)C(N)=O` (stereo not given) was tested. Which viability, T/C (compound 0.0316 µM) did it give?
A: Its viability, T/C is 96.9% [middle of 4 runs].

Q: What about the viability, T/C (compound 0.1 µM) of the same compound?
A: The viability, T/C was 97.1% [middle of 4 runs].

Q: And the viability, T/C (compound 1 µM)?
A: The viability, T/C was 63.1% [middle of 4 runs].

Q: And the viability, T/C (compound 3.16 µM)?
A: Its viability, T/C is 43.1% [middle of 4 runs].

Q: And the viability, T/C (compound 10 µM)?
A: Its viability, T/C is 32.6% [middle of 4 runs].

Q: What about the IC50 (curve of compound) of the same compound?
A: Its IC50 is 1.77 µM [middle of 4 runs].

Source: PubChem BioAssay AID2060909 (Molecular Pharmacology Branch, DTP, NCI, 2025)
